# In publication PMC8379256, “A xanthene derivative, DS20060511, attenuates glucose intolerance by inducing skeletal muscle-specific GLUT4 translocation in mice” (Communications Biology, 2021):
# Several values for one entry are separate records, joined by “and”; a condition that tells them apart may be missing. Identical values can stand only once.
# Tests used:
# [1] = system: 3T3-L1-GLUT4myc adipocytes; experiment: In vitro cellular 2-DG uptake in 3T3-L1-GLUT4myc adipocytes; assay type: cell-based; settings: for Ratio: 2-DG uptake normalized to vehicle; for A - background / A: dpm: 2-DG uptake
# Description: The L6-GLUT4myc rat myoblast cell line was obtained from Dr. Amira Klip and Dr. Philip Bilan, through a license granted by The Hospital for Sick Children, 555 University Avenue, Toronto, Ontario, Canada M5G 1 × 8; or purchased from Kerafast, Boston, MA (ESK202)[43]. The 3T3-L1-GLUT4myc fibroblast cell line was provided by Dr. Tomoyuki Yuasa, Tokushima University[44]. L6-GLUT4myc myoblasts were grown in MEMα (32571036, Thermo Fisher Scientific, Waltham, MA) supplemented with 10% FBS and 1% antibiotics, and then induced to differentiate into myotubes in MEMα supplemented with 2% FBS and 1% antibiotics for 5–8 days. 3T3-L1-GLUT4myc fibroblasts were induced to differentiate into adipocytes as described previously,[45] with minor modifications. Briefly, cells were grown to confluence in growth medium: DMEM (10569010, Thermo Fisher Scientific) supplemented with 10% FBS and 1% antibiotics, and then induced to differentiate into adipocytes in growth medium supplemented with 1 μM dexamethasone, 2 μM rosiglitazone, 0.5 mM isobutylmethylxanthine, and 10 μg mL^−1 insulin for 2 days. The adipocytes were then cultured in growth medium supplemented with 10 μg mL^−1 insulin for a few days before being used for the experiments.
# L6-GLUT4myc myotubes and 3T3-L1-GLUT4myc adipocytes were incubated in the wells of a 24-well plate containing serum-free medium for 3 h at 37 °C and then incubated in glucose-free medium for 30 min at 37 °C. The cells were treated with the indicated concentrations of DS20060511 or insulin for 30 min at 37 °C, followed by the addition of 1 mM 2-deoxy-D-glucose (2-DG) and 0.3 μCi mL^−1 [^3H]-2-DG for 10 min. 2-DG uptake was measured with a liquid scintillation counter (Tri-Carb 2810TR, PerkinElmer, Waltham, MA) and normalized to the level in the vehicle-treated group.
# [2] = system: isolated skeletal muscles; experiment: 2-DG uptake with 100 nM insulin in isolated muscles from C57BL/6 mice; parameters: species or system mouse; settings: for 2DOG Trn / IC 2DOG / Raio (2-DG uptake relative to untreated control): isolated muscles, individual muscles #1-3; for 2DOG Trn / IC 2DOG: 2DG 1 mM, incubation 10 min
# Description: Arrowheads indicate the characteristic ruffled structure of the polymerized actin and actin-associated surface GLUT4. d GLUT4 translocation activity of 30 μM DS20060511 or 100 nM insulin in the presence of the actin polymerization inhibitor, Latrunculin B, at the indicated concentrations. Values shown are means ± SEM, n = 3. **P < 0.01 vs. 0 nM Latrunculin B by one-way ANOVA followed by Dunnett’s test. e Concentration-dependent insulin-stimulated GLUT4 translocation in L6-GLUT4myc myotubes with or without 30 μM DS20060511 (n = 3). f Concentration-dependent DS20060511-stimulated 2-DG uptake with 100 nM insulin in isolated muscles from C57BL/6 mice (n = 3). Values shown are means ± SEM. ***P < 0.001 by one-way ANOVA followed by Tukey’s test. g Blood glucose levels during ITT in STZ-treated C57BL/6 mice (n = 6–7). Vehicle or indicated dose of DS20060511 was given orally at the same time as 0.1 U kg^−1 insulin injection intraperitoneally. Values shown are means ± SEM. *P < 0.05 vs. vehicle by one-way ANOVA followed by Dunnett’s test. c Scale bar in all panels, 5 μm. Uncropped blots for a and b can be found in Supplementary Fig. 6.
# The soleus or EDL muscle was removed from anesthetized mice (isoflurane anesthesia) that had been denied access to food overnight, and incubated with oxygenated (95% O2/5% CO2) Krebs-Henseleit Bicarbonate (KHB) buffer (118.1 mM NaCl, 4.7 mM KCl, 1.1 mM KH2PO4, 1.2 mM MgSO4, 2.5 mM CaCl2, and 25 mM NaHCO3, pH7.4) in the presence of 11.1 mM glucose at 37 °C. The muscle specimens were then treated with the indicated concentrations of the compounds in KHB buffer containing 11.1 mM glucose and 8 mM mannitol for 10 min at 37 °C. Thereafter, the muscles were rinsed with KHB buffer containing 8 mM mannitol and the compounds for 5 min at 37 °C. Lastly, the muscles were treated with the compounds in KHB buffer containing 1 mM 2-DG (with 0.3 μCi mL^−1 [^3H]-2-DG) and 8 mM mannitol (with 0.03 μCi mL^−1 [^14C]-mannitol) for 10 min at 37 °C. After the muscle specimens were washed, they were lysed with 1 N NaOH and neutralized with 1 N HCl. The ^14C- and ^3H-specific activities were counted with a liquid scintillation counter. The specific uptake of 2-DG was calculated by subtracting the nonspecific uptake of mannitol from the total 2-DG uptake. To investigate the effects of muscle contraction, muscle contraction was induced by electrical stimulation with 5 Hz (1 ms pulse duration, 100 V) for 10 min (SEN-5201, Nihon Koden, Tokyo, Japan).
# [3] = insulin 100 nM alone (DS20060511 0 μM)
# [4] = DS20060511 1 μM + insulin 100 nM
# [5] = DS20060511 10 μM + insulin 100 nM
molecule,measurement,setting,value
"Insulin: Insulin (Humulin, Eli Lilly) in the in vivo experiments; Insulin solution human (I9278, Sigma–Aldrich) in the in vitro experiments",Ratio,[1]; Insulin 1 nM,12.31 and 11.72 and 12.41
same,Ratio,[1]; Insulin 10 nM,13.43 and 13.26 and 13.52
same,Ratio,[1]; Insulin 100 nM,12.21 and 13.79 and 13.94
same,A - background,[1]; Insulin 1 nM,9081 dpm and 9610 dpm and 9537 dpm
same,A: dpm,[1]; Insulin 1 nM,9577 dpm and 10106 dpm and 10033 dpm
same,A - background,[1]; Insulin 10 nM,10270 dpm and 10470 dpm and 10402 dpm
same,A: dpm,[1]; Insulin 10 nM,10766 dpm and 10966 dpm and 10898 dpm
same,A - background,[1]; Insulin 100 nM,10682 dpm and 10795 dpm and 9457 dpm
same,A: dpm,[1]; Insulin 100 nM,11178 dpm and 11291 dpm and 9953 dpm
same,2-DG uptake (in words),"[1]; differentiated 3T3-L1-GLUT4myc adipocytes, Fig. 1e",increase 2-DG uptake
same,2DOG Trn,[2]; [3],573 nmol/ml and 57.3 µM/min and 622 nmol/ml and 62.2 µM/min and 629 nmol/ml and 62.9 µM/min
same,IC 2DOG,[2]; [3],376 nmol/g and 331 nmol/g and 410 nmol/g
same,Raio (2-DG uptake relative to untreated control),[2]; [3],1.65 and 1.79 and 1.82
COc1ccc2c(C)c(C(=O)O)ccc2c1C1C2=C(CC(C)(C)CC2=O)OC2=C1C(=O)CC(C)(C)C2 [DS20060511],Ratio,[1]; DS20060511 0.1 μM,1.50 and 1.09 and 1.18
same,Ratio,[1]; DS20060511 1 μM,1.43 and 1.24 and 1.47
same,Ratio,[1]; DS20060511 10 μM,1.53 and 1.62 and 1.75
same,A - background,[1]; DS20060511 0.1 μM,846 dpm and 912 dpm and 1164 dpm
same,A: dpm,[1]; DS20060511 0.1 μM,1342 dpm and 1408 dpm and 1660 dpm
same,A - background,[1]; DS20060511 1 μM,957 dpm and 1138 dpm and 1108 dpm
same,A: dpm,[1]; DS20060511 1 μM,1453 dpm and 1634 dpm and 1604 dpm
same,A - background,[1]; DS20060511 10 μM,1255 dpm and 1357 dpm and 1185 dpm
same,A: dpm,[1]; DS20060511 10 μM,1751 dpm and 1853 dpm and 1681 dpm
same,"2-DG uptake induced by insulin, concomitant DS20060511","[2]; 100 nM insulin, isolated skeletal muscles, Fig. 4f",additively increased
same,2DOG Trn,[2]; [4],935 nmol/ml and 93.5 µM/min and 1062 nmol/ml and 106.2 µM/min and 1054 nmol/ml and 105.4 µM/min
same,IC 2DOG,[2]; [4],559 nmol/g and 682 nmol/g and 640 nmol/g
same,Raio (2-DG uptake relative to untreated control),[2]; [4],2.70 and 3.07 and 3.04
same,2DOG Trn,[2]; [5],1281 nmol/ml and 128.1 µM/min and 1209 nmol/ml and 120.9 µM/min and 1137 nmol/ml and 113.7 µM/min
same,IC 2DOG,[2]; [5],656 nmol/g and 556 nmol/g and 565 nmol/g
